Reference: patent publication US20200239587A1, “SENSITIZATION OF TUMORS TO THERAPIES THROUGH ENDOGLIN ANTAGONISM” (Cedars-Sinai Medical Center, priority 2016, published 2020)

Legend:
22Rv1 = assay: γ-H2AX and p53BP foci after irradiation; type: cell-based, human; settings: for γ-H2AX and p53BP foci: TRC105 plus 4Gy vs radiation alone
Method: 22Rv1 were pre-treated with 1 μg/ml TRC105 24 hours prior to irradiation with 4 Gy. FIG. 22A) γ-H2AX or p53 bp were imunolocalized at 4, 24, and 48 hours post radiation. Foci per nuclei were quantified (n=100). FIG. 22B) Comet assay was performed 30 minutes and 24 hours following irradiation. The tail moment was quantified (n=50). FIG. 22C) Cell cycle analysis was performed on 22Rv1 at 0, 4, 8, and 24 hours post radiation in the presence of IgG or TRC105 (n=3) in 3 independent experiments. (***p<0.001, ****p<0.0001).

[1] = tested on: tissue recombination orthotopic xenografts of primary human CAF and Rv1; assay: Tissue recombination orthotopic xenografts of primary human CAF and Rv1
Excerpt: FIG. 13A) Mice were orthotopically grafted with tissue recombinants of CW22Rv1 and CAF. […] FIG. 13B) H&E staining was followed by immune-localization for phosphorylated-histoneH3 (PH-H3), TUNEL, and chromogranin A (ChromA). Scale bar represents 32 μm. The mitotic (PH-H3) and cell death (TUNEL) indexes were plotted. n>5, error bars are mean+/−SD and *p<0.05, **p<0.01, ***p<0.001, compared to control unless otherwise indicated.
Male beige/SCID mice (Envigo), 6-8 or 10-12 weeks old, were used for subrenal capsule or prostatic orthotopic grafting, respectively, as previously described (Banerjee et al., 2014, Oncogene 33, 4924-4931; Hayward et al., 2001, Cancer Res 61, 8135-8142). In accordance with institutional animal care and use committee approval, 2×10^5 CW22Rv1 cells and 6×10^5 stromal cells were suspended in 20 μL type I collagen to be grafted into the subrenal capsule of mice castrated after seven days and sacrificed 21 days after castration. […] Tumor volume was calculated using the modified ellipsoid formula volume3=π/6×(width)2×length.
Paraffin embedded tissues were sectioned (5 μm thick) were subjected to hematoxylin and eosin (H&E) staining and immunohistochemistry as previously reported (Placencio et al., 2008, Cancer research 68, 4709-4718). […] Anti-phosphorylated histone H3 (06-570, Millipore), anti-CD105 (NCL-CD105, Leica Microsystems), anti-Ki67 (ab16667, Abcam), and anti-chromogranin A (sc-13090, Santa Cruz Biotechnology), anti-SFRP1 (601-401-475S, Rockland Immunochemicals), and anti-survivin (2808, Cell Signaling) antibodies were incubated at 4° C. overnight. Secondary antibody development was performed with Dako Cytomation mouse or rabbit kits and visualized using 3,3′-diaminobenzidine tetrahydrochloride substrate. TUNEL staining was performed per manufacturer's protocol (S7100, Millipore). Slides were scanned with a Leica Biosystems Aperio AT. Up to five fields per tissue were quantitated with Fiji (ImageJ) using a custom written macro. Mitotic and death index were quantitated by taking the total number of positively-stained nuclei divided by the total number of nuclei.

[2] = tested on: survivin and full length PARP1 in CW22Rv1; assay: Survival proteins after radiation and TRC105; type: cell-based, human; settings: 4Gy radiation and TRC105, 5 days
22Rv1 cells = assay: Annexin-V apoptosis by FACS after irradiation; type: cell-based, human; settings: TRC105 with 4 Gy radiation vs radiation alone, 5 days
Method: FIG. 18A) Cell surface CD105 expression was measured in PC3, C42b, and 22Rv1 72 hours after 4 Gy irradiation treatment by FACS analysis and compared to cells not irradiated (control). FIG. 18B) Cell surface CD105 expression was measured in cell lines following a dose range of irradiation (0, 2, 4, or 6 Gy). FIG. 18C) The durability of cell surface CD105 expression in 22Rv1 was determined 0, 0.5, 4, 8, 24, 48, 72, 120, and 168 hours following 4 Gy irradiation. CD105 cell surface expression fold change was normalized to levels expressed prior to irradiation. FIG. 18D) Western blot for phosphorylated-Smad1/5 was measured in CW22Rv1 cells in the presence or absence of serum starvation and treatment with 50 ng/ml BMP4 or 1 μg/ml TRC105. β-actin expression served as the loading control. FIG. 18E) Annexin-V expression was measured in 22Rv1 cells by FACS analysis 5 days following 4 Gy irradiation in the presence and absence of TRC105. FIG. 18F) Clonogenic assay was measured 10 days following irradiation of CW22Rv1 and C42b cells in a dose range of 0 to 6 Gy in the presence of 1 μg/ml IgG or TRC105. Data are reported as a mean+/−S.D. (**p<0.01, ***p<0.001).

[3] = tested on: CW22Rv1 cells in 3D co-culture with mouse prostatic fibroblasts; assay: 3D co-culture epithelial proliferation, EpCam and Ki-67 FACS; type: cell-based, human
Method: A modified version of the 3D organotypic co-culture system was performed in a collagen matrix similar to that previously reported (Stark et al., 1999, J Invest Dermatol 112, 681-691). Collagen matrix gels were prepared by mixing five volumes of rat tail collagen I with two volumes of matrigel (NCI), one volume of 10× DMEM medium (GE Healthcare Life Sciences), and one volume of FBS (Atlanta Biologicals), Rv1 and primary mouse prostatic fibroblasts were combined in a 1:3 ratio. Nylon squares were coated with collagen and placed on metal grids in a 6-well plate. Gel plugs (150 μl) were transferred onto the nylon squares and media was added to the level of the nylon mesh. After 72 hours, the cells were dissociated from the matrix with collagenase and dispersed for FACS analysis.
FACS experiments were performed with eBiosciences antibodies: anti-human Stro-1-FITC (340105), anti-human CD90-PE (12-0909-42), anti-human CD105-APC (17-1057-41), anti-mouse CD105-APC (17-1051-82), anti-human CD117-PE-Cy7 (15-1178-41), anti-human Ki67-PECy7 (25-5699-41), and anti-human EpCAM-PE (12-9326-41). All events were acquired on a BD LSRII flow cytometer in the Cedars-Sinai Medical Center FACS core installed with BD FACSDiva software. Files were analyzed using FlowJo software v10.2. EpCAM positive cells were used to identify the CW22Rv1 epithelia in three-dimensional (3D) co-cultures and further gated for CD105 or Ki67 positive cells.
(§1) CW22Rv1, C42B, and PC3 cells from ATCC were expanded as directed. Prostatectomy specimens from Cedars-Sinai Medical Center or the Greater Los Angeles Veterans Affairs were cultured to generate NAF and CAF cells using the same method, as C57BL/6 mouse wild-type prostatic fibroblasts were grown as previously reported (Franco et al., 2011, Cancer research 71, 1272-1281; Kiskowski et al., 2011, Cancer research 68, 4709-4718). TRC105 and M1043 were provided by TRACON Pharmaceuticals, Inc. (San Diego, Calif.). Enzalutamide (Xtandi) was purchased from Medivation (San Francisco, Calif.).

Rv1 = assay: MTT proliferation assay; type: cell-based, human; settings: TRC105 plus enzalutamide
Method: as §1
(§2) 3000 cells per 96-well were treated for 72 hours using 5 wells per treatment. MTT reagent (M6494, Life Technologies) was prepared as directed, incubated for one hour at 37° C., and analyzed using manufacturer's recommendations.

C42B = assay: MTT proliferation assay; type: cell-based, human; settings: TRC105 plus enzalutamide
Method: as §1, §2

PC3 cells = assay: MTT proliferation assay; type: cell-based, human; settings: enzalutamide in the presence of TRC105
Method: as §1, §2

Substance: TRC105: partially humanized monoclonal antibody that blocks BMP signaling; human-specific CD105 (endoglin) neutralizing antibody from Tracon Pharmaceuticals
- number of cells with greater than 10 foci per nuclei (22Rv1; TRC105 alone (radiation alone 59.6%)): 4.3%
- γ-H2AX and p53BP foci (22Rv1; 4 and 24 hours post radiation): significant increase in γ-H2AX and p53BP foci
- γ-H2AX and p53BP foci (22Rv1; by 48 hours): no difference
- double stranded DNA breaks (22Rv1; TRC105 treatment alone vs untreated, within 24 hours, persisted past 72 hours): significant increase in double stranded DNA breaks
- NED, chromogranin A staining ([1]; TRC105 added to ATT): reduced
- proliferation or cell death ([1]; TRC105 alone compared to control): little change in either proliferation or cell death
- tumor size ([1]; TRC105 alone, p<0.05): smaller than vehicle
- tumor volume ([1]; TRC105 in enzalutamide treated castrated mice vs vehicle or enzalutamide (p<0.01 and <0.05)): significant reduction in tumor volume
- tumor size ([1]; TRC105 treatment in castrated mice): reduced tumor size
- proliferation (phosphorylated-histone H3) ([1]; castration, enzalutamide and TRC105 vs control or castrated enzalutamide group (p<0.05 and <0.001)): substantially reduced proliferation
- TUNEL staining ([1]; castration, enzalutamide and TRC105 vs control or enzalutamide (p<0.05)): increased TUNEL staining
- efficacy of combination of TRC105 with ADT ([1]; prostate cancer models, in vivo): superior to either one alone
- survival proteins (survivin and full length PARP1) [2]: precipitous down regulation of survival proteins
- apoptosis measured by Annexin-V (22Rv1 cells): significantly increased apoptosis
- epithelial proliferation, antibody alone ([3]; compared to IgG control, 1 μg/mL, 72 hours): did not change epithelial proliferation
- enzalutamide-induced epithelial proliferation, single antibody ([3]; enzalutamide plus M1043 or TRC105): did not alter enzalutamide-induced epithelial proliferation
- epithelial proliferation, enzalutamide with both M1043 and TRC105 ([3]; triple combination): restored epithelial proliferation to that of control
- cell proliferation (MTT), addition of TRC105 to enzalutamide (Rv1): no additional impact
- cell proliferation (MTT), addition of TRC105 to enzalutamide (C42B): no additional impact
- viability (MTT) (PC3 cells): insensitive
